According to patent US7521478B2, “Total synthesis of myriaporones” (Pharma Mar, S.A.U., priority 2002, dated 2009):
Like-named read-outs stand apart in the source and are kept apart here.

What was measured:
Assay type in all cases: cell-based
DU-145 = assay: Inhibition of cell growth by colorimetric SRB assay, DU-145; conditions: Homo sapiens, DU-145, 48 hours exposure; for CC50: cell killing, read-out: LC50 (the source's name); for IC (total growth inhibition): read-out: TGI
Method in brief: (§1)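 Absorbance of solubilized bound SRB (490 nm) quantified cell growth and viability after cells were exposed to compound for 48 h. Seeding was 5×10^3 cells per well in RPMI 1640/10% FBS, with 18 h attachment beforehand. GI, TGI and LC were calculated from means of triplicate wells.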

SK-MEL-28 = assay: Inhibition of cell growth by colorimetric SRB assay, MEL-28; conditions: Homo sapiens, SK-MEL-28, MEL-28, 48 hours exposure; for CC50: cell killing, read-out: LC50 (the source's name); for IC (total growth inhibition): read-out: TGI
Method in brief: as §1

PANC-1 = assay: Inhibition of cell growth by colorimetric SRB assay, PANC-1; conditions: Homo sapiens, PANC-1, 48 hours exposure; for CC50: cell killing, read-out: LC50 (the source's name); for IC (total growth inhibition): read-out: TGI
Method in brief: as §1

K-562 = assay: Inhibition of cell growth by colorimetric SRB assay, K-562; conditions: Homo sapiens, K562, K-562, 48 hours exposure; for CC50: cell killing, read-out: LC50 (the source's name); for IC (total growth inhibition): read-out: TGI
Description: (§2) The finality of these assays is to interrupt the growth of a “in vitro” tumor cell culture by means a continued exhibition of the cells to the sample to be testing.
(§3) Inhibition of Cell Growth by Colorimetric Assay.
(§4) A colorimetric type of assay, using sulforhodamine B (SRB) reaction has been adapted for a quantitative measurement of cell growth and viability (following the technique described by P. A. Skehan, et al., J. Natl. CancerInst. 1990, 82, 1107-1112).
(§5) This form of assay employs 96 well cell culture microplates of 9 mm diameter (T. Mosmann et al., J. of Immuological Methods 1983, 65, 55-63; G. T. Faircloth et al., J. of Tissue and Culture Methods 1988, 11, 201-205). Most of the cell lines are obtained from American Type Culture Collection (ATCC) derived from different human cancer types.
(§6) Cells are maintained in RPMI 1640 10% FBS, supplemented with 0.1 g/L penicillin and 0.1 g/L streptomycin sulfate and then incubated at 37° C., 5% CO2 and 98% humidity. For the experiments, cells were harvested from subconfluent cultures using trypsin and resuspended in fresh medium before plating.
(§7) Cells are seeded in 96 well microtiter plates, at 5×10^3 cells per well in aliquots of 195 μL medium, and they are allowed to attach to the plate surface by growing in drug free medium for 18 hours. Afterward, samples are added in aliquots of 5 μL in a ranging from 10 to 10^−8 μg/mL, dissolved in DMSO/EtOH/PBS (0.5:0.5:99). After 48 hours exposure, the antitumor effect are measured by the SRB methodology: cells are fixed by adding 50 μL of cold 50% (wt/vol) trichloroacetic acid (TCA) and incubated for 60 minutes at 4° C. Plates are washed with deionizer water and dried. One hundred μl of SRB solution (0.4% wt/vol in 1% acetic acid) is added to each microliter well and incubated for 10 minutes at room temperature. Unbound SRB is removed by washing with 1% acetic acid. Plates are air dried and bound stain is solubilized with Tris buffer. Optical densities are read on a automated spectrophotometric plate reader at a single wavelength of 490 nm.
(§8) The values for mean +/−SD of data from triplicate wells are calculated. Some parameters for cellular responses can be calculated: GI=growth inhibition, TGI=total growth inhibition (cytostatic effect) and LC=cell killing (cytotoxic effect).

IGROV-ET = assay: Inhibition of cell growth by colorimetric SRB assay, IGROV-ET; conditions: Homo sapiens, IGROV-ET, 48 hours exposure; for CC50: cell killing, read-out: LC50 (the source's name); for IC (total growth inhibition): read-out: TGI
Method in brief: as §1

LNCaP = assay: Inhibition of cell growth by colorimetric SRB assay, LN-caP; conditions: Homo sapiens, LN-caP, 48 hours exposure; for CC50: cell killing, read-out: LC50 (the source's name); for IC (total growth inhibition): read-out: TGI
Description: as §2, §3, §4, §5, §6, §7, §8

LoVo = assay: Inhibition of cell growth by colorimetric SRB assay, LOVO; conditions: Homo sapiens, LOVO, 48 hours exposure; for LC50: cell killing, read-out: LC50; for IC (total growth inhibition): read-out: TGI
Method in brief: as §1

A-549 = assay: Inhibition of cell growth by colorimetric SRB assay, A-549; conditions: Homo sapiens, A549, A-549, 48 hours exposure; for CC50: cell killing, read-out: LC50 (the source's name); for IC (total growth inhibition): read-out: TGI
Method in brief: as §1

HT-29 = assay: Inhibition of cell growth by colorimetric SRB assay, HT-29; conditions: Homo sapiens, HT-29, 48 hours exposure; for CC50: cell killing, read-out: LC50 (the source's name); for IC (total growth inhibition): read-out: TGI
Description: as §2, §3, §4, §5, §6, §7, §8

HeLa-APL = assay: Inhibition of cell growth by colorimetric SRB assay, HELA-APL; conditions: Homo sapiens; for CC50: cell killing, read-out: LC50 (the source's name); for IC (total growth inhibition): read-out: TGI
Method in brief: as §1

IGROV = assay: Inhibition of cell growth by colorimetric SRB assay, IGROV; conditions: Homo sapiens, 48 hours exposure; for CC50: cell killing, read-out: LC50 (the source's name); for IC (total growth inhibition): read-out: TGI
Description: as §2, §3, §4, §5, §6, §7, §8

LoVo-Dox = assay: Inhibition of cell growth by colorimetric SRB assay, LOVO-DOX; conditions: Homo sapiens, LOVO-DOX, 48 hours exposure; for LC50 (concentration for 50% cell killing): read-out: LC50; for IC (total growth inhibition): read-out: TGI
Method in brief: as §1

HeLa = assay: Inhibition of cell growth by colorimetric SRB assay, HELA; conditions: Homo sapiens, HELA, 48 hours exposure; for CC50: cell killing, read-out: LC50 (the source's name); for IC (total growth inhibition): read-out: TGI
Method in brief: as §1

SK-BR-3 = assay: Inhibition of cell growth by colorimetric SRB assay, SK-BR-3; conditions: SK-BR-3, 48 hours exposure; for GI50 / CC50: Homo sapiens; for CC50: cell killing, read-out: LC50 (the source's name); for TGI: total growth inhibition
Description: as §2, §3, §4, §5, §6, §7, §8

[1] = HELA-APL, 48 hours exposure, read-out: GI50

Compound: C/C=C\[C@H](C)[C@H]1O[C@@]1(C)[C@@H](O)[C@@H](COC(C)=O)C(=O)[C@H](CO)[C@@H](O)CC(=O)CC [Compound 47]
- GI50 (DU-145): 0.0815 µM
- CC50 (DU-145): 24.1 µM
- IC (total growth inhibition) (DU-145): 0.531 µM
- GI50 (SK-MEL-28): 0.082 µM
- CC50 (SK-MEL-28): 12.9 µM
- IC (total growth inhibition) (SK-MEL-28): 0.984 µM
- GI50 (PANC-1): 0.0905 µM
- CC50 (PANC-1): 19.5 µM
- IC (total growth inhibition) (PANC-1): 2.38 µM
- GI50 (K-562): 0.294 µM
- CC50 (K-562): 11.8 µM
- IC (total growth inhibition) (K-562): 0.999 µM
- GI50 (IGROV-ET): 0.152 µM
- CC50 (IGROV-ET): 24.1 µM
- IC (total growth inhibition) (IGROV-ET): 1.08 µM
- GI50 (LNCaP): 0.0813 µM
- CC50 (LNCaP): 8.88 µM
- IC (total growth inhibition) (LNCaP): 0.536 µM
- GI50 (LoVo): 0.0403 µM
- LC50 (LoVo): 17.7 µM
- IC (total growth inhibition) (LoVo): 0.374 µM
- GI50 (A-549): 0.151 µM
- CC50 (A-549): 23.2 µM
- IC (total growth inhibition) (A-549): 1.12 µM
- GI50 (HT-29): 0.106 µM
- CC50 (HT-29): 24.1 µM
- IC (total growth inhibition) (HT-29): 3.11 µM
- CC50 (HeLa-APL; HELA-APL, 48 hours exposure): 24.1 µM
- GI50 (HeLa-APL; [1]): 0.0796 µM
- IC (total growth inhibition) (HeLa-APL; HELA-APL, 48 hours exposure): 0.591 µM
- GI50 (IGROV): 0.0639 µM
- CC50 (IGROV): 24.1 µM
- IC (total growth inhibition) (IGROV): 0.528 µM
- GI50 (LoVo-Dox): 0.216 µM
- LC50 (concentration for 50% cell killing) (LoVo-Dox): 24.1 µM
- IC (total growth inhibition) (LoVo-Dox): 24.1 µM
- GI50 (HeLa): 0.0717 µM
- CC50 (HeLa): 13.5 µM
- IC (total growth inhibition) (HeLa): 0.434 µM
- GI50 (SK-BR-3): 0.0231 µM
- CC50 (SK-BR-3): 2.3 µM
- TGI (SK-BR-3): 1.18E−07 Molar

Compound: C/C=C\[C@H](C)[C@H]1OC1(C)[C@@H](O[Si](C)(C)C(C)(C)C)[C@@H](CO)C(=O)[C@H](CO)[C@@H](O)CC(=O)CC (some centres unmarked) [20a + 20c]
- GI50 (DU-145): 10.7 µM
- CC50 (DU-145): ≥ 20.5 µM
- IC (total growth inhibition) (DU-145): 20.5 µM
- GI50 (SK-MEL-28): 16.3 µM
- CC50 (SK-MEL-28): ≥ 20.5 µM
- IC (total growth inhibition) (SK-MEL-28): 20.5 µM
- GI50 (PANC-1): 14 µM
- CC50 (PANC-1): ≥ 20.5 µM
- IC (total growth inhibition) (PANC-1): 20.5 µM
- GI50 (K-562): 7.75 µM
- CC50 (K-562): ≥ 20.5 µM
- IC (total growth inhibition) (K-562): 20.5 µM
- GI50 (IGROV-ET): 13.8 µM
- CC50 (IGROV-ET): ≥ 20.5 µM
- IC (total growth inhibition) (IGROV-ET): 20.5 µM
- GI50 (LNCaP): 8.42 µM
- CC50 (LNCaP): ≥ 20.5 µM
- IC (total growth inhibition) (LNCaP): 20.5 µM
- GI50 (LoVo): 10.4 µM
- LC50 (LoVo): ≥ 20.5 µM
- IC (total growth inhibition) (LoVo): 20.5 µM
- GI50 (A-549): ≥ 20.5 µM
- CC50 (A-549): ≥ 20.5 µM
- IC (total growth inhibition) (A-549): 20.5 µM
- GI50 (HT-29): 17.1 µM
- CC50 (HT-29): ≥ 20.5 µM
- IC (total growth inhibition) (HT-29): 20.5 µM
- GI50 (HeLa-APL; 48 h): 12.9 µM
- CC50 (HeLa-APL; HELA-APL, 48 hours exposure): ≥ 20.5 µM
- GI50 (IGROV): 14.1 µM
- CC50 (IGROV): ≥ 20.5 µM
- IC (total growth inhibition) (IGROV): 20.5 µM
- GI50 (LoVo-Dox): 85.1 µM
- LC50 (concentration for 50% cell killing) (LoVo-Dox): ≥ 20.5 µM
- IC (total growth inhibition) (LoVo-Dox): 20.5 µM
- GI50 (HeLa): 13.3 µM
- CC50 (HeLa): ≥ 20.5 µM
- IC (total growth inhibition) (HeLa): 20.5 µM
- GI50 (SK-BR-3): 11.1 µM
- CC50 (SK-BR-3): ≥ 20.5 µM
- TGI (SK-BR-3): 2.05E−05 Molar

Compound: C/C=C\[C@H](C)[C@H]1OC1(C)[C@@H](O)[C@@H](CO)C(=O)[C@H](CO)[C@H](O)CC(=O)CC (some centres unmarked) [3b + 4b]
- GI50 (DU-145): 6.52 µM
- CC50 (DU-145): 26.8 µM
- IC (total growth inhibition) (DU-145): 26.8 µM
- GI50 (SK-MEL-28): 5.53 µM
- CC50 (SK-MEL-28): 26.8 µM
- IC (total growth inhibition) (SK-MEL-28): 26.8 µM
- GI50 (PANC-1): 26.8 µM
- CC50 (PANC-1): 26.8 µM
- IC (total growth inhibition) (PANC-1): 26.8 µM
- GI50 (K-562): 14.2 µM
- CC50 (K-562): 23.3 µM
- IC (total growth inhibition) (K-562): 18.2 µM
- GI50 (IGROV-ET): 6.55 µM
- CC50 (IGROV-ET): 26.8 µM
- IC (total growth inhibition) (IGROV-ET): 26.8 µM
- GI50 (LNCaP): 9.29 µM
- CC50 (LNCaP): 26.8 µM
- IC (total growth inhibition) (LNCaP): 26.8 µM
- GI50 (LoVo): 4.81 µM
- LC50 (LoVo): 26.8 µM
- IC (total growth inhibition) (LoVo): 12.6 µM
- GI50 (A-549): 26.8 µM
- CC50 (A-549): 26.8 µM
- IC (total growth inhibition) (A-549): 26.8 µM
- GI50 (HT-29): 22.1 µM
- CC50 (HT-29): 26.8 µM
- IC (total growth inhibition) (HT-29): 26.8 µM
- CC50 (HeLa-APL; HELA-APL, 48 hours exposure): 26.8 µM
- GI50 (HeLa-APL; [1]): 5.18 µM
- IC (total growth inhibition) (HeLa-APL; HELA-APL, 48 hours exposure): 26.8 µM
- GI50 (IGROV): 5.96 µM
- CC50 (IGROV): 26.8 µM
- IC (total growth inhibition) (IGROV): 26.8 µM
- GI50 (LoVo-Dox): 9.34 µM
- LC50 (concentration for 50% cell killing) (LoVo-Dox): 26.8 µM
- IC (total growth inhibition) (LoVo-Dox): 26.8 µM
- GI50 (HeLa): 8.73 µM
- CC50 (HeLa): 26.8 µM
- IC (total growth inhibition) (HeLa): 26.8 µM
- GI50 (SK-BR-3): 5.07 µM
- CC50 (SK-BR-3): 23.3 µM
- TGI (SK-BR-3): 1.09E−05 Molar
